Data on 34 compounds can be found in patent US8309721B2, “HSP90 inhibitory carbazole derivatives, compositions containing same and use thereof” (Sanofi, priority 2008, dated 2012).

Structures can show the parent of a compound that is named as a salt. Some results are limits rather than exact numbers.

This assay has as its system Her2 receptor expression at the surface of SKBr3 cells. Description: phenotypic SKBr3/HER2 cell test (Her2 surface expression by flow cytometry). It is filed as cell-based. Particulars: Homo sapiens, SK-BR-3, 24 h incubation, inhibition of Her2 expression. The procedure:
The cellular activity of the compounds can in particular be evaluated by means of the phenotypic “SKBr3/HER2” cell test described below:
The SKBr3 […] adenocarcinoma cells, overexpressing the Her2 tyrosine kinase receptor, originate from the ATCC (HTB-30) and are cultured in McCoy's 5A medium supplemented with 10% FBS and 1% L-glutamine.
The cells are seeded in 12-well plates at a proportion of 125 000 cells per well in 1 ml of complete medium. The following day, the products are added at varying concentrations. After incubation for 24 h, the cells are trypsinized, washed with PBS and incubated with 100 ng of anti-Her2 antibody coupled to PE (Phycoerythrin) (BD 340552) for 30 minutes at 4° C. in the dark. The fluorescence due to the expression of the Her2 receptor at the surface of the cells is then read using a FACS Calibur flow cytometer (Becton-Dickinson). The percentage inhibition of Her2 expression as a function of the concentrations of product tested is fitted by the nonlinear regression technique (XLfit, equation 205) in order to measure an IC50 for each product.
`NC(=O)c1ccc(-n2c3ccccc3c3c(-c4nc5ccc(F)cc5[nH]4)cccc32)cc1N[C@H]1CN2CCC1CC2` [Example 98, 2-{(R)-(1-azabicyclo[2.2.2]oct-3-yl)amino}-4-[4-(6-fluoro-1H-benzimidazol-2-yl)-9H-carbazol-9-yl]benzamide] returned an IC50 below 1000 nM. Consider `NC(=O)c1ccc(-n2c3ccccc3c3c(-c4nc5ccc(F)cc5[nH]4)cccc32)cc1N[C@@H]1CN2CCC1CC2` [Example 99, 2-{(S)-(1-azabicyclo[2.2.2]oct-3-yl)amino}-4-[4-(6-fluoro-1H-benzimidazol-2-yl)-9H-carbazol-9-yl]benzamide], for which the IC50 was below 1000 nM. On to `CN1CCC(O)(CNc2cc(-n3c4ccccc4c4c(-c5nc6ccc(F)cc6[nH]5)cccc43)ccc2C(N)=O)CC1` [Example 102, [4-(6-fluoro-1H-benzimidazol-2-yl)-9H-carbazol-9-yl]-2-[(4-hydroxy-1-methylpiperidin-4-ylmethyl)amino]benzamide], for which the IC50 was 1000 to 10000 nM.

With `CN1CCC(O)(CNc2cc(-n3c4ccccc4c4c(-c5cnc6ccccc6c5)cccc43)ccc2C(N)=O)CC1` [Example 103, 2-[(4-hydroxy-1-methylpiperidin-4-ylmethyl)-amino]-[4-(quinolin-3-yl)-9H-carbazol-9-yl]benzamide], the IC50 is below 1000 nM. In turn, `NC(=O)c1ccc(-n2c3ccccc3c3c(-c4nc5ccc(F)cc5[nH]4)cccc32)cc1NCc1cccnc1` [Example 104, 4-[4-(6-fluoro-1H-benzimidazol-2-yl)-9H-carbazol-9-yl]-2-[(pyridin-3-ylmethyl)amino]benzamide] displayed a concentration for half-maximal inhibition (IC50) below 1000 nM.

`NC(=O)c1ccc(-n2c3ccccc3c3c(-c4cnc5ccccc5c4)cccc32)cc1NCc1cccnc1` [Example 105, 2-[(pyridin-3-ylmethyl)amino]-4-[4-(quinolin-3-yl)-9H-carbazol-9-yl]benzamide]: the IC50 is below 1000 nM. With `NC(=O)c1ccc(-n2c3ccccc3c3c(-c4nc5ccc(F)cc5[nH]4)cccc32)cc1NCCc1cccnc1` [Example 106, 4-[4-(6-fluoro-1H-benzimidazol-2-yl)-9H-carbazol-9-yl]-2-[2-(pyridin-3-yl)-ethylamino]benzamide], the IC50 is below 1000 nM. On to `NC(=O)c1ccc(-n2c3ccccc3c3c(-c4cnc5ccccc5c4)cccc32)cc1NCCc1cccnc1` [Example 107, 2-[2-(pyridin-3-yl)ethylamino]-4-[4-(quinolin-3-yl)-9H-carbazol-9-yl]benzamide], for which the IC50 was below 1000 nM. As for `NC(=O)c1ccc(-n2c3ccccc3c3c(-c4cnc5ccccc5c4)cccc32)cc1N[C@H]1CN2CCC1CC2` [Example 108, 2-((R)-(1-azabicyclo[2.2.2]oct-3-yl)amino)-4-[4-(quinolin-3-yl)-9H-carbazol-9-yl]benzamide], the concentration for half-maximal inhibition (IC50) was below 1000 nM.

On to `NC(=O)c1ccc(-n2c3ccccc3c3c(-c4cnc5ccccc5c4)cccc32)cc1NC1CCCC(O)C1` [Example 109, 2-(3(R,S)-hydroxycyclohexyl-1(R,S)-amino)-4-[4-(quinolin-3-yl)-9H-carbazol-9-yl]benzamide], for which the IC50 was below 1000 nM. `Cn1cnc(CNc2cc(-n3c4ccccc4c4c(-c5nc6ccc(F)cc6[nH]5)cccc43)ccc2C(N)=O)c1` [Example 110, 4-[4-(6-fluoro-1H-benzimidazol-2-yl)-9H-carbazol-9-yl]-2-[(1-methyl-1H-imidazol-4-yl)methylamino]benzamide] registered an IC50 below 1000 nM. The compound `NC(=O)c1ccc(-n2c3ccccc3c3c(-c4nc5ccc(F)cc5[nH]4)cccc32)cc1NCC1(O)CCCC1` [Example 111, 4-[4-(6-fluoro-1H-benzimidazol-2-yl)-9H-carbazol-9-yl]-2-[(1-hydroxycyclopentan-1-yl)methylamino]benzamide] showed an IC50 below 1000 nM. Take `NC(=O)c1ccc(-n2c3ccccc3c3c(-c4cnc5ccccc5c4)cccc32)cc1NC1CCOCC1` [Example 113]: the half-inhibitory concentration (IC50) was below 1000 nM. `NC(=O)c1ccc(-n2c3ccccc3c3c(-c4nc5ccc(F)cc5[nH]4)cccc32)cc1NCC1(O)CC1` [Example 114, 4-[4-(6-fluoro-1H-benzimidazol-2-yl)-9H-carbazol-9-yl]-2-[(1-hydroxycyclopropan-1-yl)methylamino]benzamide] showed a 50% inhibitory concentration (IC50) below 1000 nM. As to `Cn1cc(CNc2cc(-n3c4ccccc4c4c(-c5nc6ccc(F)cc6[nH]5)cccc43)ccc2C(N)=O)cn1` [Example 115, 4-[4-(6-fluoro-1H-benzimidazol-2-yl)-9H-carbazol-9-yl]-2-[(1-methyl-1H-pyrazol-4-yl)methylamino]benzamide], the half-maximal inhibitory concentration (IC50) was below 1000 nM. Regarding `NC(=O)c1ncc(-n2c3ccccc3c3c(-c4cnc5ccccc5c4)cccc32)cc1NC1CCOCC1` [Example 116], the IC50 was below 1000 nM. `Cn1cnc(CCNc2cc(-n3c4ccccc4c4c(-c5nc6ccc(F)cc6[nH]5)cccc43)ccc2C(N)=O)c1` [Example 117, 4-[4-(6-fluoro-1H-benzimidazol-2-yl)-9H-carbazol-9-yl]-2-[(1-methyl-1H-imidazol-4-yl)ethylamino]benzamide] returned an IC50 below 1000 nM. Compound `Cn1cc(CNc2cc(-n3c4ccccc4c4c(-c5cnc6ccccc6c5)cccc43)ccc2C(N)=O)cn1` [Example 119, 2-[(1-methyl-1H-pyrazol-4-yl)methylamino]-4-[4-(quinolin-3-yl)-9H-carbazol-9-yl]benzamide] had a half-inhibitory concentration (IC50) below 1000 nM.

With `NC(=O)c1ccc(-n2c3ccccc3c3c(-c4cnc5ccccc5c4)cccc32)cc1NCC1(O)CC1` [Example 121, 4-[4-(quinolin-3-yl)-9H-carbazol-9-yl]-2-[(1-hydroxycyclopropan-1-yl)methylamino]benzamide], the IC50 is below 1000 nM. Take `CN1C(C)(C)CC(Nc2cc(-n3c4ccccc4c4c(-c5cnc6ccccc6c5)cccc43)cnc2C(N)=O)CC1(C)C` [Example 122]: the concentration for half-maximal inhibition (IC50) is below 1000 nM. With `CC(C)(C)OC(=O)N1CCC(Nc2cc(-n3c4ccccc4c4c(-c5cnc6ccccc6c5)cccc43)ccc2C(N)=O)CC1` [Example 123], the IC50 was 1000 to 10000 nM. On to `NC(=O)c1ccc(-n2c3ccccc3c3c(-c4cnc5ccccc5c4)cccc32)cc1NC1CCNCC1` [Example 124, 2-(piperidin-4-ylamino)-4-[4-(quinolin-3-yl)-9H-carbazol-9-yl]benzamide hydrochloride], for which the IC50 is below 1000 nM. As for `CC(C)(O)CCNc1cc(-n2c3ccccc3c3c(-c4ccc(C#N)nc4)cccc32)ccc1C(N)=O` [Example 125, 4-[4-(6-cyanopyridin-3-yl)-9H-carbazol-9-yl]-2-[(3-hydroxy-3-methylbutyl)amino]benzamide], the figure is below 1000 nM.

As to `CN1C(C)(C)CC(Nc2cc(-n3c4ccccc4c4c(-c5ccc(C#N)nc5)cccc43)ccc2C(N)=O)CC1(C)C` [Example 127, 4-[4-(6-cyanopyridin-3-yl)-9H-carbazol-9-yl]-2-[(1,2,2,6,6-pentamethylpiperidin-4-yl)amino]benzamide], the 50% inhibitory concentration (IC50) is below 1000 nM. As for `NCC(=O)O[C@H]1CC[C@H](Nc2cc(-n3c4ccccc4c4c(-c5cnc6ccccc6c5)cccc43)cnc2C(N)=O)CC1` [Example 128, aminoacetic acid 4-trans-{[2-carbamoyl-5-(quinolin-3-yl)-9H-carbazol-9-yl]pyridin-3-ylamino}cyclohexyl ester], the figure is below 1000 nM; as for `NC(=O)c1ncc(-n2c3ccccc3c3c(-c4cnc5ccccc5c4)cccc32)cc1NCCF` [Example 129, 3-(2-fluoroethylamino)-5-[4-(quinolin-3-yl)-9H-carbazol-9-yl]pyridine-2-carboxamide], below 1000 nM.

As for `CC1(C)CC(Nc2cc(-n3c4ccccc4c4c(-c5cnc6ccccc6c5)cccc43)cnc2C(N)=O)CC(C)(C)N1` [Example 132, 5-[4-(quinolin-3-yl)-9H-carbazol-9-yl)-3-(2,2,6,6-tetramethylpiperidin-4-ylamino)pyridine-2-carboxamide], the half-inhibitory concentration (IC50) fell in the range of 1000 to 10000 nM. Compound `NC(=O)c1ncc(-n2c3ccccc3c3c(-c4cnc5ccccc5c4)cccc32)cc1NCCc1ccccn1` [Example 133, 3-[(2-pyridin-2-yl)ethylamino)-5-[4-(quinolin-3-yl)-9H-carbazol-9-yl]pyridine-2-carboxamide] displayed an IC50 below 1000 nM. With `N#Cc1ccc(-c2cccc3c2c2ccccc2n3-c2ccc(C(N)=O)c(NCCF)c2)cn1` [Example 134, 4-[4-(6-cyanopyridin-3-yl)-9H-carbazol-9-yl]-2-[(2-fluoroethyl)amino]benzamide] the figure was below 1000 nM; with `CN1C2CCC1CC(Nc1cc(-n3c4ccccc4c4c(-c5ccc(C#N)nc5)cccc43)ccc1C(N)=O)C2` (stereo not shown) [Example 135, 4-[4-(6-cyanopyridin-3-yl)-9H-carbazol-9-yl]-2-[(8-methyl-8-azabicyclo[3.2.1]oct-3-yl)amino]benzamide], below 1000 nM; with `NC(=O)c1ncc(-n2c3ccccc3c3c(-c4nc5ccc(F)cc5[nH]4)cccc32)cc1NC1CCOCC1` [Example 136], below 1000 nM. `NC(=O)c1cnc(-n2c3ccccc3c3c(-c4cnc5ccccc5c4)cccc32)cc1NC1CCOCC1` [Example 137] had an IC50 below 1000 nM. As for `CC(C)(O)CNc1cc(-n2c3ccccc3c3c(-c4cnc5ccccc5c4)cccc32)cnc1C(N)=O` [Example 139], the figure is below 1000 nM; as for `CN(C)CC(=O)O[C@H]1CC[C@H](Nc2cc(-n3c4ccccc4c4c(-c5nc6ccc(F)cc6[nH]5)cccc43)ccc2C(N)=O)CC1` [Example 140, dimethylaminoacetic acid 4-trans-{2-carbamoyl-5-[4(6-fluoro-1H-benzimidazol-2-yl)carbazol-9-yl]phenylamino}cyclohexyl ester], below 1000 nM.
